For experiment [1], the target named is PHM. The following applies: cited from earlier work; for Ki: PHM inactivator; for Km: PHM substrate.
Experiment [2] deals with T1, PHM (Rattus norvegicus, UniProt P14925).
T1 sequence (P14925 36-715 isoform P14925-2 limits assumed): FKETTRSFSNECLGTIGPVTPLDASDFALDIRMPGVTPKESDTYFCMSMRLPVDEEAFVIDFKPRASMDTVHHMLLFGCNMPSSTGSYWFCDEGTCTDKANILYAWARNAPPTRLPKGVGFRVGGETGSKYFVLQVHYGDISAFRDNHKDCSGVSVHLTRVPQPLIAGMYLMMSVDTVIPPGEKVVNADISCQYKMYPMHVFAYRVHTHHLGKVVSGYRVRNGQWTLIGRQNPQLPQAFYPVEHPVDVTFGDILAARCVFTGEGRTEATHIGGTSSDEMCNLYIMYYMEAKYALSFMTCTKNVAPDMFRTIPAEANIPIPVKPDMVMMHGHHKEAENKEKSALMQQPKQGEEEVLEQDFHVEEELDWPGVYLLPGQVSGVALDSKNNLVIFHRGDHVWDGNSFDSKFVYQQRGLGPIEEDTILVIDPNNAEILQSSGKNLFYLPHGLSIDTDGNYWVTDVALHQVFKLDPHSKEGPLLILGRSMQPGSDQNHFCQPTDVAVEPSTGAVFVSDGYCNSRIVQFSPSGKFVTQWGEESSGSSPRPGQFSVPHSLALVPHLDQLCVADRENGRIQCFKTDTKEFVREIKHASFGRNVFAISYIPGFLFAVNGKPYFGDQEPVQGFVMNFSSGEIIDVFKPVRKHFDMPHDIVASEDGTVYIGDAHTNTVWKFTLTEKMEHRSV
Nature of the experiment: Inhibition of the PHM-dependent consumption of O2. The format is biochemical.

Experiment [3] addresses T1, PHM. Description: PHM inactivation by the dilution method. The following applies: for Inactivation of PHM (qualitative): dilution method, in the presence of ascorbate and O2; for kinact/KI: pH 6, read-out: (kinact/KI)obs. In kind it is biochemical.
For a further experiment, the system named is P450. The following applies: inactivation of P450; cited from earlier work.
Experiment [4] concerns dopamine β-monooxygenase (DβM). The conditions noted are these: inactivation of DβM; cited from earlier work.
Experiment [5] addresses T1, PHM. Nature of the experiment: Tiopronin protection against the cinnamate-mediated inactivation of PHM. In kind it is biochemical. The following applies: 60 μM tiopronin, 7.5 mM cinnamate, 2 h.

On to `O=C(O)/C=C/C(=O)c1ccccc1` [benzoylacrylate, trans-benzoylacrylate], for which the Ki on PHM [1] was 200 µM.

As to `Nc1ccc(C=CC(=O)O)cc1` [4-Aminocinnamic acid], the Ki on PHM [2] was 500 ± 60 µM. In addition, on PHM [3], the “Inactivation of PHM (qualitative)” value is on record as “inactivate PHM” and the kinact/KI was 1 M⁻¹ s⁻¹.

On to `O=C(O)C=Cc1ccc2c(c1)OCO2` [3,4-Methylenedioxycinnamic acid], for which the Ki at PHM [2] amounted to 300 ± 40 µM.

As for `O=C(O)C/C=C/c1ccccc1` [PBA, trans-4-phenyl-3-butenoate], at PHM [1], the Ki was 50 µM.

Turning to `C=CCC(C(N)=O)C(C)C` (centres unmarked) [2-isopropyl-4-pentenamide], the partition ratio with P450 was 200–300.

Turning to `O=C(O)CNC(=O)CCc1ccccc1` [hydrocinnamoylglycine, N-hydrocinnamoylglycine], the Km in the experiment with PHM [1] is 900 µM.

On to phenyl(aminomethyl)ethane, for which the “partition ratio, kcat/kinact” value in experiment [4] is on record as 900.

`CC(S)C(=O)NCC(=O)O` (centres unmarked) [tiopronin]: the “Protection of PHM from cinnamate-mediated inactivation” value on PHM [5] is “did protect PHM from inactivation”.

Consider `O=C(O)CNC(=O)C=Cc1ccccc1` [cinnamoylglycine, N-cinnamoylglycine], for which the Km in the experiment on PHM [1] was 200 µM.

For `CN(C)c1ccc(C=CC(=O)O)cc1` [N,N-Dimethyl-4-aminocinnamic acid], on PHM [3], the “Inactivation of PHM (qualitative)” value was “inactivate PHM” and the kinact/KI was 0.5 M⁻¹ s⁻¹.

Regarding `CN(C)c1cccc2c(S(=O)(=O)Nc3ccc(C=CC(=O)O)cc3)cccc12` [N-Dansyl-4-aminocinnamic acid], on PHM [3], the “Inactivation of PHM (qualitative)” value is reported as “inactivate PHM” and the kinact/KI was found to be 333 M⁻¹ s⁻¹. Also, the “(kinact/KI)obs relative to cinnamate” value at PHM [3] (ratio to the (kinact/KI)obs value for cinnamate) is reported as ~ 500 fold.

`O=C(O)C=Cc1ccccc1C(F)(F)F` [2-Trifluoromethylcinnamic acid] yielded a Ki on PHM [2] of 200 ± 20 µM.

By Km is commonly meant the concentration of substrate that gives half-maximal velocity.

(Values after article PMC4801743 (Journal of enzyme inhibition and medicinal chemistry, 2015).)
